From PubChem BioAssay AID1259407 (Chemical Carcinogenesis Research Information System (CCRIS), 2018)
The source made the active and inactive calls. No rule for the calls is given here.

Tested on: CCRIS mutagenicity, Ames/micronucleus/aberration tests
Test: CCRIS mutagenicity studies
[1] = Test System: AMES SALMONELLA TYPHIMURIUM, Strain/Indicator: TA98, Metabolic Activation: NONE, Method: PREINCUBATION
[2] = Test System: AMES SALMONELLA TYPHIMURIUM, Strain/Indicator: TA98, Metabolic Activation: NONE, Method: STANDARD PLATE
[3] = Test System: AMES SALMONELLA TYPHIMURIUM, Strain/Indicator: TA98, Metabolic Activation: RAT, LIVER, S-9, AROCLOR 1254, Method: STANDARD PLATE
[4] = Test System: AMES SALMONELLA TYPHIMURIUM, Strain/Indicator: TA100, Metabolic Activation: NONE, Method: STANDARD PLATE
[5] = Test System: AMES SALMONELLA TYPHIMURIUM, Strain/Indicator: TA100, Metabolic Activation: RAT, LIVER, S-9, AROCLOR 1254, Method: STANDARD PLATE
[6] = Test System: AMES SALMONELLA TYPHIMURIUM, Strain/Indicator: TA1535, Metabolic Activation: NONE, Method: STANDARD PLATE
[7] = Test System: AMES SALMONELLA TYPHIMURIUM, Strain/Indicator: TA1535, Metabolic Activation: RAT, LIVER, S-9, AROCLOR 1254, Method: STANDARD PLATE
[8] = Test System: AMES SALMONELLA TYPHIMURIUM, Strain/Indicator: TA1537, Metabolic Activation: NONE, Method: STANDARD PLATE
[9] = Test System: AMES SALMONELLA TYPHIMURIUM, Strain/Indicator: TA1537, Metabolic Activation: RAT, LIVER, S-9, AROCLOR 1254, Method: STANDARD PLATE
[10] = Test System: AMES SALMONELLA TYPHIMURIUM, Strain/Indicator: TA1538, Metabolic Activation: NONE, Method: STANDARD PLATE
[11] = Test System: AMES SALMONELLA TYPHIMURIUM, Strain/Indicator: TA1538, Metabolic Activation: RAT, LIVER, S-9, AROCLOR 1254, Method: STANDARD PLATE

| SMILES | mutagenic call [2] | mutagenic call [3] | mutagenic call [4] | mutagenic call [5] | mutagenic call [6] | mutagenic call [7] | mutagenic call [8] | mutagenic call [9] | mutagenic call [10] | mutagenic call [11] | other results |
| --- | --- | --- | --- | --- | --- | --- | --- | --- | --- | --- | --- |
| CCN1CCN(C(=O)N[C@@H](C(=O)N[C@@H]2C(=O)N3[C@@H]2SC(C)(C)[C@@H]3C(=O)O)c2ccccc2)C(=O)C1=O | inactive; negative | inactive; negative | inactive; negative | inactive; negative | inactive; negative | inactive; negative | inactive; negative | inactive; negative | inactive; negative | inactive; negative | mutagenic call (Test System: AMES SALMONELLA TYPHIMURIUM, Strain/Indicator: TA98, Metabolic Activation: MOUSE, IN VIVO, Method: HOST-MEDIATED): inactive; negative; mutagenic call [1]: inactive; negative; mutagenic call (Test System: AMES SALMONELLA TYPHIMURIUM, Strain/Indicator: TA98, Metabolic Activation: S-9, Method: PREINCUBATION): inactive; negative; mutagenic call (Test System: AMES SALMONELLA TYPHIMURIUM, Strain/Indicator: TA100, Metabolic Activation: MOUSE, IN VIVO, Method: HOST-MEDIATED): inactive; negative; mutagenic call (Test System: AMES SALMONELLA TYPHIMURIUM, Strain/Indicator: TA100, Metabolic Activation: NONE, Method: PREINCUBATION): inactive; negative; mutagenic call (Test System: AMES SALMONELLA TYPHIMURIUM, Strain/Indicator: TA100, Metabolic Activation: S-9, Method: PREINCUBATION): inactive; negative; mutagenic call (Test System: AMES SALMONELLA TYPHIMURIUM, Strain/Indicator: TA1535, Metabolic Activation: MOUSE, IN VIVO, Method: HOST-MEDIATED): inactive; negative; mutagenic call (Test System: AMES SALMONELLA TYPHIMURIUM, Strain/Indicator: TA1535, Metabolic Activation: NONE, Method: PREINCUBATION): inactive; negative; mutagenic call (Test System: AMES SALMONELLA TYPHIMURIUM, Strain/Indicator: TA1535, Metabolic Activation: S-9, Method: PREINCUBATION): inactive; negative; mutagenic call (Test System: AMES SALMONELLA TYPHIMURIUM, Strain/Indicator: TA1537, Metabolic Activation: MOUSE, IN VIVO, Method: HOST-MEDIATED): inactive; negative; mutagenic call (Test System: AMES SALMONELLA TYPHIMURIUM, Strain/Indicator: TA1537, Metabolic Activation: NONE, Method: PREINCUBATION): inactive; negative; mutagenic call (Test System: AMES SALMONELLA TYPHIMURIUM, Strain/Indicator: TA1537, Metabolic Activation: S-9, Method: PREINCUBATION): inactive; negative; mutagenic call (Test System: E. COLI, Strain/Indicator: WP2 UVRA, Metabolic Activation: NONE, Method: PREINCUBATION): inactive; negative; mutagenic call (Test System: E. COLI, Strain/Indicator: WP2 UVRA, Metabolic Activation: NONE, Method: STANDARD PLATE): inactive; negative; mutagenic call (Test System: E. COLI, Strain/Indicator: WP2 UVRA, Metabolic Activation: RAT, LIVER, S-9, AROCLOR 1254, Method: STANDARD PLATE): inactive; negative; mutagenic call (Test System: E. COLI, Strain/Indicator: WP2 UVRA, Metabolic Activation: S-9, Method: PREINCUBATION): inactive; negative |
| O=P(OCCC(Br)CBr)(OCCC(Br)CBr)OCCC(Br)CBr (configuration not stated) | – | – | – | – | – | – | – | – | – | – | mutagenic call (Test System: AMES SALMONELLA TYPHIMURIUM, Strain/Indicator: TA100, Metabolic Activation: RAT, LIVER, MICROSOMES, PHENOBARBITAL, Method: PREINCUBATION): inactive; negative; mutagenic call (Test System: AMES SALMONELLA TYPHIMURIUM, Strain/Indicator: TA100, Metabolic Activation: RAT, LIVER, MICROSOMES, Method: PREINCUBATION): inactive; negative |
| Nc1cccc2nc3c(N)cccc3nc12 | – | – | – | – | – | – | – | – | – | – | mutagenic call [1]: active; positive; mutagenic call (Test System: AMES SALMONELLA TYPHIMURIUM, Strain/Indicator: TA98, Metabolic Activation: RAT, LIVER, S-9, PCB, Method: PREINCUBATION): inactive; negative |
| CSc1ccc(Cl)cc1 | inactive; negative | inactive; negative | inactive; negative | inactive; negative | inactive; negative | inactive; negative | inactive; negative | inactive; negative | inactive; negative | inactive; negative | – |
| C[C@]12CC[C@H](OC(=O)/C=C/c3cccc(N(CCCl)CCCl)c3)CC1=CC[C@@H]1[C@@H]2CC[C@]2(C)NC(=O)CC[C@@H]12 | inactive; negative | inactive; negative | inactive; negative | inactive; negative | active; positive | active; positive | inactive; negative | inactive; negative | – | – | – |
| COc1ccc(O)c2c(=O)c3c(OC)cc4c(c3oc12)C1CCOC1O4 (configuration not stated) | – | – | – | – | – | – | – | – | – | – | mutagenic call (Test System: AMES SALMONELLA TYPHIMURIUM, Strain/Indicator: TA98, Metabolic Activation: RAT, LIVER, S-9, PHENOBARBITAL, Method: STANDARD PLATE): inactive; negative; mutagenic call (Test System: AMES SALMONELLA TYPHIMURIUM, Strain/Indicator: TA100, Metabolic Activation: RAT, LIVER, S-9, PHENOBARBITAL, Method: STANDARD PLATE): inactive; negative |
| COC(=O)C(C)(C)Oc1ccc(-c2ccc(Cl)cc2)cc1 | inactive; negative | inactive; negative | inactive; negative | inactive; negative | inactive; negative | inactive; negative | inactive; negative | inactive; negative | inactive; negative | inactive; negative | mutagenic call (Test System: AMES SALMONELLA TYPHIMURIUM, Strain/Indicator: TA98, Metabolic Activation: RAT, LIVER, S-9, PHENOBARBITONE AND BETA-NAPHTHOFLAVONE, Method: PREINCUBATION): inactive; negative; mutagenic call (Test System: AMES SALMONELLA TYPHIMURIUM, Strain/Indicator: TA100, Metabolic Activation: RAT, LIVER, S-9, PHENOBARBITONE AND BETA-NAPHTHOFLAVONE, Method: PREINCUBATION): inactive; negative; mutagenic call (Test System: E. COLI, Strain/Indicator: WP2 (PKM101), Metabolic Activation: NONE, Method: STANDARD PLATE): inactive; negative; mutagenic call (Test System: E. COLI, Strain/Indicator: WP2 (PKM101), Metabolic Activation: RAT, LIVER, S-9, AROCLOR 1254, Method: STANDARD PLATE): inactive; negative; mutagenic call (Test System: E. COLI, Strain/Indicator: WP2 (PKM101), Metabolic Activation: RAT, LIVER, S-9, PHENOBARBITONE AND BETA-NAPHTHOFLAVONE, Method: PREINCUBATION): inactive; negative; mutagenic call (Test System: E. COLI, Strain/Indicator: WP2 UVRA (PKM101), Metabolic Activation: NONE, Method: STANDARD PLATE): inactive; negative; mutagenic call (Test System: E. COLI, Strain/Indicator: WP2 UVRA (PKM101), Metabolic Activation: RAT, LIVER, S-9, AROCLOR 1254, Method: STANDARD PLATE): inactive; negative; mutagenic call (Test System: UDS RAT HEPATOCYTES, Metabolic Activation: NONE, Method: AUTORADIOGRAPHY): inactive; negative; mutagenic call (Test System: UDS RAT HEPATOCYTES, Strain/Indicator: BROMODEOXYURIDINE INCORP, Metabolic Activation: NONE): active; positive |
| C[C@]12CCC(=O)C=C1C=C[C@@H]1[C@@H]2CC[C@@]2(C)[C@H]1CC[C@@]2(O)CCC(=O)O | – | – | – | – | – | – | – | – | – | – | mutagenic call (End Point: IN VITRO MICRONUCLEUS, Test System: HUMAN PERIPHERAL LYMPHOCYTES, Metabolic Activation: NONE): inactive; negative; mutagenic call (End Point: IN VITRO MICRONUCLEUS, Test System: HUMAN PRIMARY HEPATOCYTES (FEMALE), Metabolic Activation: NONE): inactive; negative; mutagenic call (End Point: IN VITRO MICRONUCLEUS, Test System: RAT PRIMARY HEPATOCYTES (MALE/FEMALE), Metabolic Activation: NONE): active; positive |
